# Reference: PubChem BioAssay (NCI)
#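 Dose response: 5 concentrations. Exposure: 48 h. Format: 96-well plates. Endpoint: linear interpolation; highest concentration if not reached. Abbreviation: GI50, concentration required for 50% inhibition of growth. TGI: concentration producing complete growth inhibition.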
# Assays:
# Test in all cases: NCI anticancer screen, dose series, 48 h
# OVCAR-3 ovarian = system: OVCAR-3 ovarian
# SNB-75 CNS = system: SNB-75 CNS
# TK-10 renal = system: TK-10 renal
# SK-MEL-2 melanoma = system: SK-MEL-2 melanoma
# HCT-116 colon = system: HCT-116 colon
# K-562 leukemia = system: K-562 leukemia
# HL-60(TB) leukemia = system: HL-60(TB) leukemia
# U251 CNS = system: U251 CNS
# A549 NSCLC = system: A549 NSCLC
# SW-620 colon = system: SW-620 colon
# RPMI-8226 leukemia = system: RPMI-8226 leukemia
# MOLT-4 leukemia = system: MOLT-4 leukemia
# EKVX NSCLC = system: EKVX NSCLC
# UACC-62 melanoma = system: UACC-62 melanoma
# SF-295 CNS = system: SF-295 CNS
# SR leukemia = system: SR leukemia
# M14 melanoma = system: M14 melanoma
# HS 578T breast = system: HS 578T breast
# RXF 393 renal = system: RXF 393 renal
# ACHN renal = system: ACHN renal
# OVCAR-4 ovarian = system: OVCAR-4 ovarian
# MDA-MB-435 = system: MDA-MB-435
# LOX IMVI melanoma = system: LOX IMVI melanoma
# HT29 colon = system: HT29 colon
# MDA-MB-468 breast = system: MDA-MB-468 breast
# SF-539 CNS = system: SF-539 CNS
# OVCAR-8 ovarian = system: OVCAR-8 ovarian
# MDA-MB-231 breast = system: MDA-MB-231 breast
# NCI-H460 lung = system: NCI-H460 lung
# UO-31 renal = system: UO-31 renal
# MCF7 breast = system: MCF7 breast
# IGROV1 ovarian = system: IGROV1 ovarian
# SK-MEL-28 melanoma = system: SK-MEL-28 melanoma
# SNB-19 CNS = system: SNB-19 CNS
# HCC-2998 colon = system: HCC-2998 colon
# SK-OV-3 ovarian = system: SK-OV-3 ovarian
# UACC-257 melanoma = system: UACC-257 melanoma
# KM12 colon = system: KM12 colon
# CAKI-1 renal = system: CAKI-1 renal
# SK-MEL-5 melanoma = system: SK-MEL-5 melanoma
# SF-268 CNS = system: SF-268 CNS
# BT-549 breast = system: BT-549 breast
# 786-0 renal = system: 786-0 renal
# NCI-H226 lung = system: NCI-H226 lung
# COLO 205 colon = system: COLO 205 colon
# NCI-H522 lung = system: NCI-H522 lung
# DU-145 prostate = system: DU-145 prostate
# CCRF-CEM leukemia = system: CCRF-CEM leukemia
# NCI-H23 lung = system: NCI-H23 lung
# OVCAR-5 ovarian = system: OVCAR-5 ovarian
# SN12C renal = system: SN12C renal
# HCT-15 colon = system: HCT-15 colon
# HOP-62 NSCLC = system: HOP-62 NSCLC
# HOP-92 NSCLC = system: HOP-92 NSCLC
# PC-3 prostate = system: PC-3 prostate
# T-47D breast = system: T-47D breast
# MALME-3M melanoma = system: MALME-3M melanoma
# A498 renal = system: A498 renal
structure (smiles),measurement,setting,value
CCOc1ccc(/C=N/NC(=O)Cn2nc(Cc3ccccc3)c3onc(C)c3c2=O)cc1,GI50,OVCAR-3 ovarian,> 100 µM
same,TGI,OVCAR-3 ovarian,> 100 µM
same,GI50,SNB-75 CNS,2.61 µM
same,TGI,SNB-75 CNS,13.8 µM
same,GI50,TK-10 renal,> 40.2 µM
same,TGI,TK-10 renal,> 66.2 µM
same,GI50,SK-MEL-2 melanoma,15.5 µM
same,TGI,SK-MEL-2 melanoma,33.1 µM
same,GI50,HCT-116 colon,> 100 µM
same,TGI,HCT-116 colon,> 100 µM
same,GI50,K-562 leukemia,> 100 µM
same,TGI,K-562 leukemia,> 100 µM
same,GI50,HL-60(TB) leukemia,> 100 µM
same,TGI,HL-60(TB) leukemia,> 100 µM
same,GI50,U251 CNS,9.01 µM
same,TGI,U251 CNS,> 100 µM
same,GI50,A549 NSCLC,> 100 µM
same,TGI,A549 NSCLC,> 100 µM
same,GI50,SW-620 colon,> 100 µM
same,TGI,SW-620 colon,> 100 µM
same,GI50,RPMI-8226 leukemia,> 100 µM
same,TGI,RPMI-8226 leukemia,> 100 µM
same,GI50,MOLT-4 leukemia,> 100 µM
same,TGI,MOLT-4 leukemia,> 100 µM
same,GI50,EKVX NSCLC,> 100 µM
same,TGI,EKVX NSCLC,> 100 µM
same,GI50,UACC-62 melanoma,> 19.9 µM
same,TGI,UACC-62 melanoma,> 100 µM
same,GI50,SF-295 CNS,14.7 µM
same,TGI,SF-295 CNS,> 61 µM
same,GI50,SR leukemia,> 100 µM
same,TGI,SR leukemia,> 100 µM
same,GI50,M14 melanoma,> 21.6 µM
same,TGI,M14 melanoma,> 100 µM
same,GI50,HS 578T breast,3.57 µM
same,TGI,HS 578T breast,> 25.6 µM
same,GI50,RXF 393 renal,5.82 µM
same,TGI,RXF 393 renal,22.5 µM
same,GI50,ACHN renal,11.3 µM
same,TGI,ACHN renal,> 52.4 µM
same,GI50,OVCAR-4 ovarian,2.93 µM
same,TGI,OVCAR-4 ovarian,> 100 µM
same,GI50,MDA-MB-435,> 100 µM
same,TGI,MDA-MB-435,> 100 µM
same,GI50,LOX IMVI melanoma,> 100 µM
same,TGI,LOX IMVI melanoma,> 100 µM
same,GI50,HT29 colon,> 100 µM
same,TGI,HT29 colon,> 100 µM
same,GI50,MDA-MB-468 breast,9.09 µM
same,TGI,MDA-MB-468 breast,44.6 µM
same,GI50,SF-539 CNS,19.5 µM
same,TGI,SF-539 CNS,> 64.5 µM
same,GI50,OVCAR-8 ovarian,> 100 µM
same,TGI,OVCAR-8 ovarian,> 100 µM
same,GI50,MDA-MB-231 breast,8.26 µM
same,TGI,MDA-MB-231 breast,> 37.6 µM
same,GI50,NCI-H460 lung,> 100 µM
same,TGI,NCI-H460 lung,> 100 µM
same,GI50,UO-31 renal,> 100 µM
same,TGI,UO-31 renal,> 100 µM
same,GI50,MCF7 breast,> 100 µM
same,TGI,MCF7 breast,> 100 µM
same,GI50,IGROV1 ovarian,47.4 µM
same,TGI,IGROV1 ovarian,> 100 µM
same,GI50,SK-MEL-28 melanoma,> 100 µM
same,TGI,SK-MEL-28 melanoma,> 100 µM
same,GI50,SNB-19 CNS,16.3 µM
same,TGI,SNB-19 CNS,> 52.4 µM
same,GI50,HCC-2998 colon,> 100 µM
same,TGI,HCC-2998 colon,> 100 µM
same,GI50,SK-OV-3 ovarian,13.8 µM
same,TGI,SK-OV-3 ovarian,> 66.8 µM
same,GI50,UACC-257 melanoma,> 100 µM
same,TGI,UACC-257 melanoma,> 100 µM
same,GI50,KM12 colon,> 100 µM
same,TGI,KM12 colon,> 100 µM
same,GI50,CAKI-1 renal,14 µM
same,TGI,CAKI-1 renal,> 95.8 µM
same,GI50,SK-MEL-5 melanoma,> 100 µM
same,TGI,SK-MEL-5 melanoma,> 100 µM
same,GI50,SF-268 CNS,15.7 µM
same,TGI,SF-268 CNS,> 100 µM
same,GI50,BT-549 breast,13.5 µM
same,TGI,BT-549 breast,> 24.8 µM
same,GI50,786-0 renal,5.99 µM
same,TGI,786-0 renal,17.6 µM
same,GI50,NCI-H226 lung,4.76 µM
same,TGI,NCI-H226 lung,> 24.7 µM
same,GI50,COLO 205 colon,> 100 µM
same,TGI,COLO 205 colon,> 100 µM
same,GI50,NCI-H522 lung,> 31.3 µM
same,TGI,NCI-H522 lung,> 87.2 µM
same,GI50,DU-145 prostate,> 100 µM
same,TGI,DU-145 prostate,> 100 µM
same,GI50,CCRF-CEM leukemia,> 100 µM
same,TGI,CCRF-CEM leukemia,> 100 µM
same,GI50,NCI-H23 lung,30.4 µM
same,TGI,NCI-H23 lung,> 100 µM
same,GI50,OVCAR-5 ovarian,> 100 µM
same,TGI,OVCAR-5 ovarian,> 100 µM
same,GI50,SN12C renal,> 100 µM
same,TGI,SN12C renal,> 100 µM
same,GI50,HCT-15 colon,> 100 µM
same,TGI,HCT-15 colon,> 100 µM
same,GI50,HOP-62 NSCLC,4.4 µM
same,TGI,HOP-62 NSCLC,28.4 µM
same,GI50,HOP-92 NSCLC,5.71 µM
same,TGI,HOP-92 NSCLC,21.7 µM
same,GI50,PC-3 prostate,> 100 µM
same,TGI,PC-3 prostate,> 100 µM
same,GI50,T-47D breast,> 20.4 µM
same,TGI,T-47D breast,> 100 µM
same,GI50,MALME-3M melanoma,12 µM
same,TGI,MALME-3M melanoma,> 100 µM
same,GI50,A498 renal,19.9 µM
same,TGI,A498 renal,> 59.6 µM
